Laboratory results: PMC6199744, “Development of Chemical Proteomics for the Folateome and Analysis of the Kinetoplastid Folateome” (ACS Infectious Diseases, 2018)
Read-outs that look alike come from different tables or passages of the source.

Columns and labels:
Assay type in all cases: binding
[1] = target: T1, HeLa cell extract proteins (Homo sapiens, UniProt Q9BSE5)
T1 construct: endogenous in cells; host or cells: HeLa cell extract
T1 sequence (Q9BSE5 36-352): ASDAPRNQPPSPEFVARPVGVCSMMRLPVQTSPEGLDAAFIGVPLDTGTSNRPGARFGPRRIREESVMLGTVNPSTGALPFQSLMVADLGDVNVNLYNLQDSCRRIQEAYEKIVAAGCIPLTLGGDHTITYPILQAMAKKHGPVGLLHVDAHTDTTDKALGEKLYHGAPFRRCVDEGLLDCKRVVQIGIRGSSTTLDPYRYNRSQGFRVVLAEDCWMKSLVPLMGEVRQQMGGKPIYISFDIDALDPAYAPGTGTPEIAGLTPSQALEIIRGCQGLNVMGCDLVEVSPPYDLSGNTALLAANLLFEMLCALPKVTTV

[2] = target: T2, HeLa cell extract proteins (Homo sapiens, UniProt P68871)
T2 construct: endogenous in cells; host or cells: HeLa cell extract

[3] = target: T3, HeLa cell extract proteins (Homo sapiens, UniProt O75396); settings: protein SEC22B; HeLa
T3 construct: endogenous in cells; host or cells: HeLa cell extract
T3 sequence (O75396 1-215): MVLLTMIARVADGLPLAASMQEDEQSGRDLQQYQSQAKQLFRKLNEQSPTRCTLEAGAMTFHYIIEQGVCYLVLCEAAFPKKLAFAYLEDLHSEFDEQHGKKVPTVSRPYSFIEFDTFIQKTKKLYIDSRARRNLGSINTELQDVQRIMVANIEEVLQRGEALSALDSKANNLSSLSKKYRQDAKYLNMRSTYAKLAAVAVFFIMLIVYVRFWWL

[4] = target: T4, HeLa cell extract proteins (Homo sapiens, UniProt Q8N0W3); settings: protein FUK; HeLa
T4 construct: endogenous in cells; host or cells: HeLa cell extract
T4 sequence (Q8N0W3 1-1084): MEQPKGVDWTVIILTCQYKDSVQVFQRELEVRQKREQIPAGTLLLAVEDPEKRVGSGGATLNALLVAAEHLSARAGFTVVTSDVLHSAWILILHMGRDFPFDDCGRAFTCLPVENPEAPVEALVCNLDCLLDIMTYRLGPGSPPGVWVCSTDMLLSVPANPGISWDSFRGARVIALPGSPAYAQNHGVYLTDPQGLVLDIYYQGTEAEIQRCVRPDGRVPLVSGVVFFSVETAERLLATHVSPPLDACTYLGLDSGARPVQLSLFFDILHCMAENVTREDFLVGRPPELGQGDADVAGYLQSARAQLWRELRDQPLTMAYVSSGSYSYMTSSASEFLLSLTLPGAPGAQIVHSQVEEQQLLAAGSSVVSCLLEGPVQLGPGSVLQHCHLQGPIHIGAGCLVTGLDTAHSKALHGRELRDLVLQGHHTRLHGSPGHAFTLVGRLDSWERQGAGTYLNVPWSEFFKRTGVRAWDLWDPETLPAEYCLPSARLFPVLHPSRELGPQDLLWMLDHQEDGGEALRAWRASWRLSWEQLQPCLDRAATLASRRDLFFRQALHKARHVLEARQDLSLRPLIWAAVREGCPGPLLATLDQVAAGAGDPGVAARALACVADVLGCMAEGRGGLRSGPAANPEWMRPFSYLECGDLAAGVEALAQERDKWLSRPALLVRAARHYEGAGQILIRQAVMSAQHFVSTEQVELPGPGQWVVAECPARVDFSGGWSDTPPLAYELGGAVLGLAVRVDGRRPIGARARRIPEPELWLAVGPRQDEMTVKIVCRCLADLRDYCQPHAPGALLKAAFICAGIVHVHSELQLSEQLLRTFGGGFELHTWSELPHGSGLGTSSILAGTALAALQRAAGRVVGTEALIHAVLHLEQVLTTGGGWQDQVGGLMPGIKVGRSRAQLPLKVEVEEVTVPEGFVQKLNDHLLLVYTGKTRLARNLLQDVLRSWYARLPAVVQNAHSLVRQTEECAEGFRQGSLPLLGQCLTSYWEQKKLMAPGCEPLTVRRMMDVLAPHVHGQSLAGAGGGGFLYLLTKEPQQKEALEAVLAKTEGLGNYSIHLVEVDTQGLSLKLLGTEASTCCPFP

[5] = target: T5, HeLa cell extract proteins (Homo sapiens, UniProt Q9BVK8); settings: HeLa; protein TMEM147
T5 construct: endogenous in cells; host or cells: HeLa cell extract
T5 sequence (Q9BVK8 1-224): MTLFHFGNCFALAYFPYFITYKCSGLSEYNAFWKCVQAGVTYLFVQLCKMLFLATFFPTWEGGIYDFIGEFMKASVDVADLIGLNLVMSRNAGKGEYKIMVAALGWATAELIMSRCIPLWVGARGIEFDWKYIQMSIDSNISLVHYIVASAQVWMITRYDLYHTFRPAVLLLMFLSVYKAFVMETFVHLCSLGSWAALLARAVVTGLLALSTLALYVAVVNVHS

[6] = target: T6, HeLa cell extract proteins (Homo sapiens, UniProt O60684); settings: protein KPNA6; HeLa
T6 construct: endogenous in cells; host or cells: HeLa cell extract

[7] = target: T7, HeLa cell extract proteins (Homo sapiens, UniProt P09429); settings: HeLa; protein HMGB1 (HIGH MOBILITY GROUP PROTEIN B1.)
T7 construct: endogenous in cells; host or cells: HeLa cell extract
T7 sequence (P09429 1-215): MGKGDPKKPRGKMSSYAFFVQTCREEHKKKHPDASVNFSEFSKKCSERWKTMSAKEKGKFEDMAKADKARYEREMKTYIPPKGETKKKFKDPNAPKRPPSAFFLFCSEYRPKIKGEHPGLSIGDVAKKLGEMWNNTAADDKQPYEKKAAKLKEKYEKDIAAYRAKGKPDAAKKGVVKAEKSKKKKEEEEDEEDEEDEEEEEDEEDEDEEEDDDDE

[8] = HeLa, protein HBB (BETA-GLOBIN GENE FROM A T[…])

T2 sequence (P68871 whole entry): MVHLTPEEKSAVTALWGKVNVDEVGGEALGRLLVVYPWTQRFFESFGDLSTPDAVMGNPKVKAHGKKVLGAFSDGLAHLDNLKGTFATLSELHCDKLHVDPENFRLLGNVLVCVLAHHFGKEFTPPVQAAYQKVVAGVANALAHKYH

| SMILES | fold changes relative to vehicle control ([1]; protein AGMAT, HeLa) | fold changes relative to vehicle control [2, 8] | fold changes relative to vehicle control [1] | fold changes relative to vehicle control [2] | fold changes relative to vehicle control [3] | fold changes relative to vehicle control [4] | fold changes relative to vehicle control [5] | fold changes relative to vehicle control [6] | fold changes relative to vehicle control [7] |
| --- | --- | --- | --- | --- | --- | --- | --- | --- | --- |
| Nc1nc2c(c(=O)[nH]1)N(C=O)C(CNc1ccc(C(=O)N[C@@H](CCC(=O)O)C(=O)O)cc1)CN2 (some centres unmarked) [LEU, leucovorin] | 0.84 | 1.13 |  |  |  |  |  |  |  |
| Nc1nc2[nH]cc(CCc3ccc(C(=O)N[C@@H](CCC(=O)O)C(=O)O)cc3)c2c(=O)[nH]1 [PTX, pemetrexed] |  |  | 0.89 | 0.94 |  |  |  |  |  |
| CCCCCCOc1ccc(Cc2cnc(N)nc2N)cc1 [compound 1] |  |  |  |  | 0.96 | 0.96 | 0.72 | 1.16 | 1.53 fold |
| CCCCCCOc1cccc(Cc2cnc(N)nc2N)c1 [compound 2] |  |  |  |  | 1.41 | 1.11 | 0.97 | 1.34 | 3.16 fold |
| Nc1nc2cccc(-c3ccccc3)c2n1Cc1ccc(Cl)c(Cl)c1 [compound 3] |  |  |  |  | 0.89 | 1.07 | 0.96 | 1.15 | 0.85 fold |
| NCCOCCOCC(=O)Nc1nc2ncc(CNc3ccc(C(=O)NC(CCC(=O)O)C(=O)O)cc3)nc2c(=O)[nH]1 (centres unmarked) [compound 6] | 0.97 | 0.99 |  |  |  |  |  |  |  |
| NCCCNc1ccc(C(=O)NC(CCC(=O)O)C(=O)O)cc1 (centres unmarked) [compound 7] | 0.93 | 0.87 |  |  |  |  |  |  |  |
